Test results reported in patent US20180311217A1, “METHODS OF TREATMENT AND COMPOSITIONS WITH XANTHINE OXIDASE INHIBITORS” (Takeda Pharmaceuticals U.S.A., Inc., priority 2013, published 2018).
Like-named read-outs stand apart in the source and are kept apart here.

Tests used:
[1] = Study TMX-99-001: febuxostat plasma pharmacokinetics; type: in vivo, human; conditions: human, plasma, oral, mean; for partial AUC from 0 to 4 hours: read-out: AUC0-4
[2] = system: hyperuricemic gout subjects with moderate to severe renal impairment; experiment: Example 1 study: serum creatinine (sCr); type: in vivo, human; conditions: for mean sCr: no prior and/or current use ARB or ACEi; for changes in sCr: prior and/or current use of ACEi; for changes in sCr / changes in mean sCr levels: Months 6 and 12; for change in sCr over time compared with placebo: sCr 2.0 to <2.5 mg/dL at Baseline; for change in sCr over time compared to placebo: sUA of 9.0 to <10.0 mg/dL at Baseline
Experimental: Efficacy of febuxostat was assessed by measurement of serum creatinine (and calculation of eGFR), clinic systolic and diastolic BP, and sUA levels. Serum samples for the analysis of serum creatinine (and calculation of eGFR) were collected at the time points stipulated in Schedule of Study Procedures (Table 1.). The primary efficacy variable was the change from Baseline to Month 12 in sCr. Summary statistics were presented for Baseline, postbaseline, and change from Baseline by treatment group at each visit. The primary analysis was based on the analysis of covariance (ANCOVA) model for change from baseline to Month 12 for the primary efficacy variable. The model included treatment as a factor, and the baseline sCr and prior use of an ARB or an ACEi (subjects taking an ARB or an ACEi or not taking an ARB or an ACEi) as covariates.

[3] = oral administration; cited from earlier work

MRT inf ([1]; 30 mg, IR 30 mg single dose): 4.99 h
partial AUC from 0 to 4 hours ([1]; 30 mg, IR 30 mg single dose): 1900 ng·h/mL
AUC ([1]; 30 mg, IR 30 mg single dose, read-out: AUC4-24): 629 ng·h/mL
AUC ([1]; 30 mg, IR 30 mg single dose, read-out: AUC24): 2520 ng·h/mL
MRT inf ([1]; 40 mg, IR 40 mg single dose): 4.54 h
partial AUC from 0 to 4 hours ([1]; 40 mg, IR 40 mg single dose): 3350 ng·h/mL
MRT inf ([1]; 50 mg, IR 50 mg single dose): 5 h
AUC ([1]; 50 mg, IR 50 mg single dose, read-out: AUC4-24): 1260 ng·h/mL
MRT inf ([1]; 70 mg, IR 70 mg single dose): 5 h
partial AUC from 0 to 4 hours ([1]; 70 mg, IR 70 mg single dose): 5280 ng·h/mL
AUC ([1]; 70 mg, IR 70 mg single dose, read-out: AUC4-24): 1670 ng·h/mL
MRT inf ([1]; 90 mg, IR 90 mg single dose): 5.81 h
AUC ([1]; 90 mg, IR 90 mg single dose, read-out: AUC4-24): 2500 ng·h/mL
AUC ([1]; 90 mg, IR 90 mg single dose, read-out: AUC24): 9390 ng·h/mL
MRT inf ([1]; 120 mg, IR 120 mg single dose): 5.43 h
partial AUC from 0 to 4 hours ([1]; 120 mg, IR 120 mg single dose): 8590 ng·h/mL
AUC ([1]; 120 mg, IR 120 mg single dose, read-out: AUC4-24): 3370 ng·h/mL
MRT inf ([1]; 160 mg, IR 160 mg single dose): 4.65 h
partial AUC from 0 to 4 hours ([1]; 160 mg, IR 160 mg single dose): 16400 ng·h/mL
AUC ([1]; 160 mg, IR 160 mg single dose, read-out: AUC4-24): 5840 ng·h/mL
MRT inf ([1]; 180 mg, IR 180 mg single dose): 5.53 h
partial AUC from 0 to 4 hours ([1]; 180 mg, IR 180 mg single dose): 16800 ng·h/mL
AUC ([1]; 180 mg, IR 180 mg single dose, read-out: AUC4-24): 7150 ng·h/mL
MRT inf ([1]; 240 mg, IR 240 mg single dose): 4.32 h
partial AUC from 0 to 4 hours ([1]; 240 mg, IR 240 mg single dose): 25100 ng·h/mL
AUC ([1]; 240 mg, IR 240 mg single dose, read-out: AUC4-24): 9900 ng·h/mL
Compound: Cc1nc(-c2ccc(OCC(C)C)c(C#N)c2)sc1C(=O)O [Febuxostat, 2-[3-cyano-4-(2-methylpropoxy)phenyl]-4-methylthiazole-5-carboxylic acid]
renal function preservation compared with febuxostat 40/80 mg QD ([2]; 30 mg BID): better renal function preservation
Serum Creatinine, Change from Baseline ([2]; 30 mg BID, Day 14): 0.09 mg/dL
Serum Creatinine, Mean ([2]; 30 mg BID, Day 14): 2.18 mg/dL
Serum Creatinine, Change from Baseline ([2]; 30 mg BID, Month 1): 0.13 mg/dL
Serum Creatinine, Mean ([2]; 30 mg BID, Month 1): 2.23 mg/dL
Serum Creatinine, Change from Baseline ([2]; 30 mg BID, Month 3): 0.09 mg/dL
Serum Creatinine, Mean ([2]; 30 mg BID, Month 3): 2.18 mg/dL
Serum Creatinine, Change from Baseline ([2]; 30 mg BID, Month 6): 0.03 mg/dL
Serum Creatinine, Mean ([2]; 30 mg BID, Month 6): 2.12 mg/dL
Serum creatinine change from Baseline, LS mean ([2]; 30 mg BID, Month 6): 0.04 mg/dL
Serum creatinine change from Baseline, LS mean difference from placebo group ([2]; 30 mg BID, Month 6): -0.11 mg/dL
Serum Creatinine, Change from Baseline ([2]; 30 mg BID, Month 9): 0.11 mg/dL
Serum Creatinine, Mean ([2]; 30 mg BID, Month 9): 2.21 mg/dL
Serum Creatinine, Change from Baseline ([2]; 30 mg BID, Month 12): 0.04 mg/dL
Serum Creatinine, Mean ([2]; 30 mg BID, Month 12): 2.13 mg/dL
Serum creatinine change from Baseline, LS mean ([2]; 30 mg BID, Month 12): 0.09 mg/dL
Serum creatinine change from Baseline, LS mean difference from placebo group ([2]; 30 mg BID, Month 12): -0.10 mg/dL
mean sCr ([2]; 30 mg BID): increased
changes in sCr ([2]; 30 mg BID): slight improvements
changes in mean sCr levels ([2]; 30 mg BID, prior and/or current use of ARB): minimal changes or a slight improvement
change in sCr over time compared with placebo ([2]; 30 mg BID): small favorable trend
change in sCr over time compared to placebo ([2]; 30 mg BID): small favorable trend
changes in mean sCr levels ([2]; 30 mg BID, subjects with moderate renal impairment): minimal changes
Serum Creatinine, Change from Baseline ([2]; 40/80 mg QD, Day 14): 0.08 mg/dL
Serum Creatinine, Mean ([2]; 40/80 mg QD, Day 14): 2.30 mg/dL
Serum Creatinine, Change from Baseline ([2]; 40/80 mg QD, Month 1): 0.05 mg/dL
Serum Creatinine, Mean ([2]; 40/80 mg QD, Month 1): 2.25 mg/dL
Serum Creatinine, Change from Baseline ([2]; 40/80 mg QD, Month 3): 0.04 mg/dL
Serum Creatinine, Mean ([2]; 40/80 mg QD, Month 3): 2.24 mg/dL
Serum Creatinine, Change from Baseline ([2]; 40/80 mg QD, Month 6): 0.06 mg/dL
Serum Creatinine, Mean ([2]; 40/80 mg QD, Month 6): 2.26 mg/dL
Serum creatinine change from Baseline, LS mean ([2]; 40/80 mg QD, Month 6): 0.07 mg/dL
Serum creatinine change from Baseline, LS mean difference from placebo group ([2]; 40/80 mg QD, Month 6): -0.08 mg/dL
Serum Creatinine, Change from Baseline ([2]; 40/80 mg QD, Month 9): 0.01 mg/dL
Serum Creatinine, Mean ([2]; 40/80 mg QD, Month 9): 2.22 mg/dL
Serum Creatinine, Change from Baseline ([2]; 40/80 mg QD, Month 12): 0.19 mg/dL
Serum Creatinine, Mean ([2]; 40/80 mg QD, Month 12): 2.40 mg/dL
Serum creatinine change from Baseline, LS mean ([2]; 40/80 mg QD, Month 12): 0.23 mg/dL
Serum creatinine change from Baseline, LS mean difference from placebo group ([2]; 40/80 mg QD, Month 12): 0.04 mg/dL
mean sCr ([2]; 40/80 mg QD): increased
changes in sCr ([2]; 40/80 mg QD): minimal changes
change in sCr over time compared with placebo ([2]; 40/80 mg QD): small favorable trend
change in sCr over time compared to placebo ([2]; 40/80 mg QD): small favorable trend
changes in mean sCr levels ([2]; 40/80 mg, prior and/or current use of ARB): minimal changes or a slight improvement
changes in mean sCr levels ([2]; 40/80 mg, subjects with moderate renal impairment): small increases
orally administered febuxostat eliminated in the urine as unchanged drug [3]: < 4%
